According to ChEMBL document CHEMBL1649355, “Synthesis and biological evaluation of novel 2,4-disubstituted-1,3-thiazoles as anti-Candida spp. agents” (2011):
Converted amounts (≈) assume the structure as drawn.

Key:
[Candida] sake = Antifungal activity against Candida sake after 24 hrs by broth microdilution method; details: Fermentozyma sake
Pichia kudriavzevii = test: Antifungal activity against Candida krusei after 24 hrs by broth microdilution method
Candida albicans = test: Antifungal activity against Candida albicans after 24 hrs by broth microdilution method
Nakaseomyces glabratus = test: Antifungal activity against Candida glabrata after 24 hrs
Candida tropicalis = test: Antifungal activity against Candida tropicalis after 24 hrs by broth microdilution method

Structure (SMILES)	MIC ([Candida] sake) [µg/mL]	MIC (Pichia kudriavzevii) [µg/mL]	MIC (Candida albicans) [µg/mL]	MIC (Nakaseomyces glabratus) [µg/mL]	MIC (Candida tropicalis) [µg/mL]
COc1ccc(-c2csc(N/N=C\c3ccco3)n2)cc1	32 (≈ 107 µM)	16 (≈ 53.4 µM)	0.5 (≈ 1.67 µM)	4 (≈ 13.4 µM)	64 (≈ 214 µM)
C/C(=N/Nc1nc(-c2ccc(C)cc2)cs1)c1ccco1	32 (≈ 108 µM)	64 (≈ 215 µM)	0.5 (≈ 1.68 µM)	4 (≈ 13.5 µM)	64 (≈ 215 µM)
COc1ccc(-c2csc(N/N=C\c3cccs3)n2)cc1	32 (≈ 101 µM)	64 (≈ 203 µM)	0.125 (≈ 0.396 µM)	0.5 (≈ 1.59 µM)	128 (≈ 406 µM)
C/C(=N/Nc1nc(-c2ccc(C)cc2)cs1)c1cccs1	32 (≈ 102 µM)	32 (≈ 102 µM)	0.5 (≈ 1.6 µM)	2 (≈ 6.38 µM)	128 (≈ 408 µM)
COc1ccc(-c2csc(N/N=C(/C)c3cccs3)n2)cc1	32 (≈ 97.1 µM)	64 (≈ 194 µM)	0.125 (≈ 0.379 µM)	2 (≈ 6.07 µM)	8 (≈ 24.3 µM)
C/C(=N/Nc1nc(-c2ccc(C)cc2)cs1)c1ccccn1	32 (≈ 104 µM)	64 (≈ 208 µM)	2 (≈ 6.48 µM)	4 (≈ 13 µM)	64 (≈ 208 µM)
COc1ccc(-c2csc(N/N=C(/C)c3ccccn3)n2)cc1	32 (≈ 98.6 µM)	16 (≈ 49.3 µM)	0.5 (≈ 1.54 µM)	8 (≈ 24.7 µM)	64 (≈ 197 µM)
C/C(=N/Nc1nc(-c2ccc(C)cc2)cs1)c1cccnc1	16 (≈ 51.9 µM)	64 (≈ 208 µM)	0.5 (≈ 1.62 µM)	2 (≈ 6.48 µM)	16 (≈ 51.9 µM)
COc1ccc(-c2csc(N/N=C(/C)c3cccnc3)n2)cc1	32 (≈ 98.6 µM)	128 (≈ 395 µM)	8 (≈ 24.7 µM)	8 (≈ 24.7 µM)	128 (≈ 395 µM)
Cc1ccc(-c2csc(N/N=C\c3ccncc3)n2)cc1	32 (≈ 109 µM)	128 (≈ 435 µM)	0.5 (≈ 1.7 µM)	4 (≈ 13.6 µM)	64 (≈ 217 µM)

Further lines, results first:

MIC ([Candida] sake) [µg/mL]	MIC (Pichia kudriavzevii) [µg/mL]	MIC (Candida albicans) [µg/mL]	MIC (Nakaseomyces glabratus) [µg/mL]	MIC (Candida tropicalis) [µg/mL]	Structure (SMILES)
16 (≈ 56.5 µM)	32 (≈ 113 µM)	0.5 (≈ 1.76 µM)	4 (≈ 14.1 µM)	64 (≈ 226 µM)	Cc1ccc(-c2csc(N/N=C\c3ccco3)n2)cc1
16 (≈ 51.1 µM)	16 (≈ 51.1 µM)	0.5 (≈ 1.6 µM)	4 (≈ 12.8 µM)	128 (≈ 408 µM)	COc1ccc(-c2csc(N/N=C(/C)c3ccco3)n2)cc1
8 (≈ 26.7 µM)	16 (≈ 53.4 µM)	4 (≈ 13.4 µM)	0.5 (≈ 1.67 µM)	64 (≈ 214 µM)	Cc1ccc(-c2csc(N/N=C\c3cccs3)n2)cc1
16 (≈ 54.4 µM)	32 (≈ 109 µM)	0.125 (≈ 0.425 µM)	0.5 (≈ 1.7 µM)	128 (≈ 435 µM)	Cc1ccc(-c2csc(N/N=C\c3cccnc3)n2)cc1
16 (≈ 51.5 µM)	32 (≈ 103 µM)	4 (≈ 12.9 µM)	16 (≈ 51.5 µM)	64 (≈ 206 µM)	COc1ccc(-c2csc(N/N=C\c3cccnc3)n2)cc1
